Legend:
[1] = target: T1, Phenylethanolamine N-methyltransferase (Bos taurus, UniProt P10938); test: Binding affinity to phenylethanolamine N-methyltransferase(PNMT) in bovine
T1 sequence (P10938 whole entry): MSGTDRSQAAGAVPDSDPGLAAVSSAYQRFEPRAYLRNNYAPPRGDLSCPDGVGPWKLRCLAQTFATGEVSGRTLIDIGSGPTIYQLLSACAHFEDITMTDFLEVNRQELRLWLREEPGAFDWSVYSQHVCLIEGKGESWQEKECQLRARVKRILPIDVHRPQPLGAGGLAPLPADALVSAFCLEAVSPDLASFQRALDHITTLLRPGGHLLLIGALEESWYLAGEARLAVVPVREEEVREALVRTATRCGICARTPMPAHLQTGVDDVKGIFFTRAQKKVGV

[2] = Km value was measured; type: ADME
[3] = Vmax value was measured; type: ADME
[4] = Ratio of Vmax to Km of compound was determined; type: ADME

Structure (SMILES) | Ki [1] | Km [2] | Vmax [3] | Ratio [4]
OC1CNCc2ccccc21 (stereo not drawn) | 176 µM | – | – | –
c1ccc2c(c1)CCNC2 [1,2,3,4-TETRAHYDROISOQUINOLINE] | 10 µM | – | – | –
N[C@H]1CCc2ccccc2[C@@H]1O | 9.4 µM | – | – | –
NC[C@@H](O)c1ccccc1 | – | 70 µM | 2.2 nmol/min/mg | –
N[C@H]1CCc2ccccc2[C@H]1O | – | 22 µM | 0.15 nmol/min/mg | 68

From ChEMBL document CHEMBL1124303, “Conformational requirements of substrates for activity with phenylethanolamine N-methyltransferase” (J Med Chem, 1988)
